Data taken from patent US4148896A, “Antidepressant combination” (E. I. Du Pont de Nemours and Company, priority 1978, dated 1979).
Like-named read-outs stand apart in the source and are kept apart here.

Experiments:
in vivo = conditions: mouse, po
mouse brain MAO [1] = target: T1, mouse brain MAO (Mus musculus, UniProt Q64133); conditions: for % INHIBITION: substrate 5 HT
T1 sequence (Q64133 1-526): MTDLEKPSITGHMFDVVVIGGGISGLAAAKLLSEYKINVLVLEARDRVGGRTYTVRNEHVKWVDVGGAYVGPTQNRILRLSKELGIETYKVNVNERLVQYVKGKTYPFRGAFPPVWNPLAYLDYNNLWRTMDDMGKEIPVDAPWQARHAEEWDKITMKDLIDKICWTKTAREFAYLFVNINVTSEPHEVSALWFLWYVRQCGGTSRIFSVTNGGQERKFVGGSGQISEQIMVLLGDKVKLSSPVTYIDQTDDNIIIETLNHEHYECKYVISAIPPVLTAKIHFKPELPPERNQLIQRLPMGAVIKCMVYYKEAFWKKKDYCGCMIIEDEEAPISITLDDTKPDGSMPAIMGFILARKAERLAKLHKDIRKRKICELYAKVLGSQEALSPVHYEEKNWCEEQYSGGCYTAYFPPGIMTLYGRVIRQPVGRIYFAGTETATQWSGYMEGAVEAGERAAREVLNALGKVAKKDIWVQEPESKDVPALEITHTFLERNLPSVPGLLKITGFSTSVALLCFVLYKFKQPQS

[2] = system: tetrabenazine-induced sedation; experiment: Mouse antidepressant (antitetrabenazine) test: prevention of tetrabenazine-induced ptosis and loss of exploratory activity; conditions: for ED50: Mus musculus, po; for No. of Mice Blocked, EXPLORATORY ACTIVITY / No. of Mice Blocked, PTOSIS: 4 h after molindone
mouse brain MAO [3] = target: T1, mouse brain MAO; experiment: biochemical
[4] = system: tryptamine-induced stereotypies and hind limb paralysis; experiment: Tryptamine potentiation test; format: in vivo, mice; conditions: 2.5 mg/kg p.o., 4 Hrs., N=10
Method: […] […] (60 Mg/kg of tryptamine alone causes this syndrome but it lasts for less than a minute, usually only a few seconds.) The data were analyzed quantally and ED50's calculated.

[5] = 1 mg/kg oral (free base), 1 h, N=10
[6] = 1 mg/kg oral (free base), 2 h, N=10
[7] = 1 mg/kg oral (free base), 4 h, N=10
[8] = 3 mg/kg oral (free base), 1 h, N=10
[9] = 3 mg/kg oral (free base), 2 h, N=10
[10] = 3 mg/kg oral (free base), 4 h, N=10
[11] = 9 mg/kg oral (free base), 1 h, N=10
[12] = 9 mg/kg oral (free base), 2 h, N=10
[13] = 9 mg/kg oral (free base), 4 h, N=10
[14] = 13 mg/kg oral (free base), 1 h, N=20
[15] = 13 mg/kg oral (free base), 2 h, N=20
[16] = 13 mg/kg oral (free base), 3 h, N=20
[17] = 13 mg/kg oral (free base), 4 h, N=20
[18] = 13 mg/kg oral (free base), 6 h, N=20
[19] = 13 mg/kg oral (free base), 24 h, N=20
[20] = 27 mg/kg oral (free base), 1 h, N=10
[21] = 27 mg/kg oral (free base), 2 h, N=10
[22] = 27 mg/kg oral (free base), 4 h, N=10
[23] = 81 mg/kg oral (free base), 1 h, N=10
[24] = 81 mg/kg oral (free base), 2 h, N=10
[25] = 81 mg/kg oral (free base), 4 h, N=10
[26] = molindone 1.5 mg/kg oral alone, N=20
[27] = molindone 4.5 mg/kg oral alone, N=20
[28] = molindone 13.5 mg/kg oral alone, N=20
[29] = molindone 40.5 mg/kg oral alone, N=20
[30] = molindone alone, oral, 4 h, free base basis, N=20 (Table 2)

CCc1c(C)[nH]c2c1C(=O)C(CN1CCOCC1)CC2 (stereo not shown) [Molindone, 3-ethyl-6,7-dihydro-2-methyl-5-(morpholinomethyl)indol-4-(5H)-one]
LD50 at 24 h (in vivo): 440 mg/kg | MAO inhibition (in words) (mouse brain MAO [1]; at the high concentration of 1×10^-3 M): virtually inactive | % INHIBITION (mouse brain MAO [1]; final conc. 10^-3 m/l): 14% | % INHIBITION (mouse brain MAO [1]; final conc. 10^-4 m/l): 1% | % INHIBITION (mouse brain MAO [1]; final conc. 10^-5 m/l): 1% | % INHIBITION (mouse brain MAO [1]; final conc. 10^-6 m/l): 0% | NUMBER OF MICE BLOCKED, EXPLORATORY ACTIVITY [2, 5]: 0 | NUMBER OF MICE BLOCKED, PTOSIS [2, 5]: 0 | NUMBER OF MICE BLOCKED, EXPLORATORY ACTIVITY [2, 6]: 0 | NUMBER OF MICE BLOCKED, PTOSIS [2, 6]: 0 | NUMBER OF MICE BLOCKED, EXPLORATORY ACTIVITY [2, 7]: 0 | NUMBER OF MICE BLOCKED, PTOSIS [2, 7]: 0 | NUMBER OF MICE BLOCKED, EXPLORATORY ACTIVITY [2, 8]: 0 | NUMBER OF MICE BLOCKED, PTOSIS [2, 8]: 0 | NUMBER OF MICE BLOCKED, EXPLORATORY ACTIVITY [2, 9]: 0 | NUMBER OF MICE BLOCKED, PTOSIS [2, 9]: 1 | NUMBER OF MICE BLOCKED, EXPLORATORY ACTIVITY [2, 10]: 0 | NUMBER OF MICE BLOCKED, PTOSIS [2, 10]: 0 | NUMBER OF MICE BLOCKED, EXPLORATORY ACTIVITY [2, 11]: 0 | NUMBER OF MICE BLOCKED, PTOSIS [2, 11]: 0 | NUMBER OF MICE BLOCKED, EXPLORATORY ACTIVITY [2, 12]: 3 | NUMBER OF MICE BLOCKED, PTOSIS [2, 12]: 5 | NUMBER OF MICE BLOCKED, EXPLORATORY ACTIVITY [2, 13]: 5 | NUMBER OF MICE BLOCKED, PTOSIS [2, 13]: 7 | NUMBER OF MICE BLOCKED, EXPLORATORY ACTIVITY [2, 14]: 0 | NUMBER OF MICE BLOCKED, PTOSIS [2, 14]: 0 | NUMBER OF MICE BLOCKED, EXPLORATORY ACTIVITY [2, 15]: 6 | NUMBER OF MICE BLOCKED, PTOSIS [2, 15]: 8 | NUMBER OF MICE BLOCKED, EXPLORATORY ACTIVITY [2, 16]: 16 | NUMBER OF MICE BLOCKED, PTOSIS [2, 16]: 19 | NUMBER OF MICE BLOCKED, EXPLORATORY ACTIVITY [2, 17]: 19 | NUMBER OF MICE BLOCKED, PTOSIS [2, 17]: 20 | NUMBER OF MICE BLOCKED, EXPLORATORY ACTIVITY [2, 18]: 20 | NUMBER OF MICE BLOCKED, PTOSIS [2, 18]: 20 | NUMBER OF MICE BLOCKED, EXPLORATORY ACTIVITY [2, 19]: 6 | NUMBER OF MICE BLOCKED, PTOSIS [2, 19]: 10 | NUMBER OF MICE BLOCKED, EXPLORATORY ACTIVITY [2, 20]: 0 | NUMBER OF MICE BLOCKED, PTOSIS [2, 20]: 0 | NUMBER OF MICE BLOCKED, EXPLORATORY ACTIVITY [2, 21]: 10 | NUMBER OF MICE BLOCKED, PTOSIS [2, 21]: 10 | NUMBER OF MICE BLOCKED, EXPLORATORY ACTIVITY [2, 22]: 10 | NUMBER OF MICE BLOCKED, PTOSIS [2, 22]: 10 | NUMBER OF MICE BLOCKED, EXPLORATORY ACTIVITY [2, 23]: 0 | NUMBER OF MICE BLOCKED, PTOSIS [2, 23]: 0 | NUMBER OF MICE BLOCKED, EXPLORATORY ACTIVITY [2, 24]: 10 | NUMBER OF MICE BLOCKED, PTOSIS [2, 24]: 10 | NUMBER OF MICE BLOCKED, EXPLORATORY ACTIVITY [2, 25]: 10 | NUMBER OF MICE BLOCKED, PTOSIS [2, 25]: 10 | ED50 ([2]; 1 h, read-out: ED50, EXPLORATORY ACTIVITY): > 81 mg/kg | ED50 ([2]; 1 h, read-out: ED50, PTOSIS): > 81 mg/kg | ED50 ([2]; 2 h, read-out: ED50, EXPLORATORY ACTIVITY): 11.2 mg/kg | ED50 ([2]; 2 h, read-out: ED50, PTOSIS): 8.5 mg/kg | ED50 ([2]; 4 h, read-out: ED50, EXPLORATORY ACTIVITY): 9 mg/kg | ED50 ([2]; 4 h, read-out: ED50, PTOSIS): 7.2 mg/kg | No. of Mice Blocked, EXPLORATORY ACTIVITY [2, 26]: 0 | No. of Mice Blocked, PTOSIS [2, 26]: 1 | No. of Mice Blocked, EXPLORATORY ACTIVITY [2, 27]: 2 | No. of Mice Blocked, PTOSIS [2, 27]: 5 | No. of Mice Blocked, EXPLORATORY ACTIVITY [2, 28]: 12 | No. of Mice Blocked, PTOSIS [2, 28]: 18 | No. of Mice Blocked, EXPLORATORY ACTIVITY [2, 29]: 20 | No. of Mice Blocked, PTOSIS [2, 29]: 20 | ED50, EXPLORATORY ACTIVITY, Molindone [2, 30]: 10.8 mg/kg | ED50, PTOSIS, Molindone [2, 30]: 6.4 mg/kg | Peak time (antitetrabenazine activity) ([2]; oral, mice): 4 to 6 h | IC50 (mouse brain MAO [3]): > 1000 µM | HEAD TWITCH (mice responding) [4]: 0
